Measurements as given in patent US7635686B2, “Therapeutically useful triethyleneglycol cholesteryl oligonucleotides” (Bioniche Life Sciences, Inc., priority 2001, dated 2009).
{TEG-Chol} = cholesteryl attached through a triethylene glycol (TEG) linker

Columns and labels:
HIG-82 cells = test: HIG-82 synovial cell proliferation (MTT reduction); format: cell-based, rabbit; conditions: 53 μM, 48 hours; for Inhibition of HIG-82 cell proliferation, inhibition (%): MTT
Method: Adherent HIG-82 cells, a synovial cell line, were incubated at 10×10^5 cells/ml for 48 hours with 53 μM (final concentration) of SEQ ID NO:2, SEQ ID NO:3, SEQ ID NO:4, SEQ ID NO:6, SEQ ID NO:7, or SEQ ID NO:8. Cellular proliferation was measured using dimethylthiazol-diphenyl-tetrazolium (MTT) reduction (Mosman et al., J. Immunol. Methods 65:55, 1983). MTT was measured at a wavelength of 570 nm using a multiple spectrophotometer reader (ELX800, Bio-TEK, Instruments Inc., Winooski, Vt.). The percentage of inhibition, calculated as […]

Hs578T cells [1] = test: MATRIGEL outgrowth after 1 hr pre-incubation, Hs578T; format: cell-based, human; conditions: 53 μM pre-incubation 1 hr, 3 days on MATRIGEL, FIG. 1 and FIG. 2
Method: (§1) Various in vitro and in vivo assays may be used to evaluate the influence of the extracellular microenvironment on behavior of normal cells and tumor cells. Such assays may employ MATRIGEL® (Becton Dickinson, Franklin Lakes, N.J.), which is a solubilized basement membrane preparation extracted from the Engelbreth-Holm-Swarm murine sarcoma.
(§2) MCF-7, MDA-MB-231 (MDA-231), Hs578T and Mpanc-96 cells were cultured separately in regular culture medium, trypsinized, and counted. 100×10^3 of MDA-231 cells, 100×10^3 of Hs578T cells, 150×10^3 of MCF-7 cells and 150×10^3 of Mpanc-96 cells were separately pre-incubated for 1 hr at 37° C. in a final concentration of 53 μM of SEQ ID NO:1, 53 μM of SEQ ID NO:5 or RCM, and plated on top of MATRIGEL®-coated plates (MATRIGEL® Basement membrane matrix coated cellware 24-well plate,) for 3 days. Plates were fixed with 10% formalin. Digital photographs of the cells in the 24-well plates were taken using a Nikon Coolpix 990 digital camera (Nikon Corporation, Tokyo, Japan) connected to a Nikon inverted microscope model TMS.
(§3) MDA-MB-231 (MDA-231) and Hs578T were cultured in regular culture medium, trypsinized and counted. 100×10^3 of MDA-MB-231 cells or 100×10^3 of Hs578T cells, were separately pre-incubated for 1 hr at 37° C. in a final concentration of 53 μM of SEQ ID NO:4, 53 μM of SEQ ID NO:8 or RCM and plated on MATRIGEL®-coated plates for 3 days. Plates were fixed with 10% formalin. Digital photographs of the cells in the 24-well plates were taken using a Nikon Coolpix 990 digital camera (Nikon Corporation, Tokyo, Japan) connected to a Nikon inverted microscope model TMS.

[2] = tested on: MDA-MB-231 (MDA-231) cells; test: MATRIGEL outgrowth after 1 hr pre-incubation, MDA-231; format: cell-based, human; conditions: MDA-231, 53 μM pre-incubation 1 hr, 3 days on MATRIGEL, FIG. 1 and FIG. 2
Method: as §1, §2, §3

[3] = tested on: MDA-MB-231 (MDA-231) cells; test: Treatment of pre-formed 3-dimensional MDA-231 structures on MATRIGEL; format: cell-based, human; conditions: MDA-231, 53 μM, repeated every 3-4 days up to 17-21 days, FIG. 4
Method: The MDA-MB-231 (MDA-231) cells were cultured in regular culture medium, trypsinized and counted. 100×10^3 of MDA-231 cells were plated in regular culture medium (RCM), in wells of 24-well plates coated with 350 μl of MATRIGEL®. After the formation of 3-dimensional structures during 48 hrs without any treatment, the medium was changed, and structures were exposed to a final concentration of 53 μM of SEQ ID NO:3, 53 μM of SEQ ID NO:7, 53 μM of cholesteryl-TEG phosphoramidite, RCM, or their respective control media (RCM with water, RCM with DMSO or RCM with acetonitrile). The treatments were repeated every 3-4 days until a maximum time in culture of 17-21 days. The experiment was repeated three times. Digital photographs of the cells in the 24-well plates were taken using a Nikon Coolpix 990 digital camera connected to a Nikon inverted microscope model TMS.

[4] = tested on: MDA-MB-231 (MDA-231) cells; test: Cellular proliferation of MDA-231 cells (Trypan blue exclusion count); format: cell-based, human; conditions: MDA-231, 53 μM
Method: (§4) Either 20×10^3 MDA-MB-231 (MDA-231) or Hs578T cells were plated into individual wells of 24-well plates in regular culture medium (RCM) presence or absence (control) of 53 μM (final concentration) of SEQ ID NO:3, SEQ ID NO:7, 53 μM cholesteryl-TEG phosphoramidite, or corresponding control media (regular culture medium (RCM) for SEQ ID NO:3, RCM with the same amount of water as the amount added with the SEQ ID NO:7, and RCM with the same amount of acetonitrile as the amount added with cholesteryl-TEG phosphoramidite). Cells were cultured for 72 hrs, removed with trypsin and counted with an hemocytometer using the Trypan blue exclusion technique. Results of three independent assays (mean and standard deviation (s.d.) of percentage of changes compared to controls) are shown in Table 9.

Hs578T cells [5] = test: Cellular proliferation of Hs578T cells (Trypan blue exclusion count); format: cell-based, human; conditions: 53 μM
Method: as §4

MEG-01 cells = test: Apoptosis by phosphatidylserine redistribution (FITC-annexin V flow cytometry) in MEG-01 cells; format: cell-based, human; conditions: 48 hours; for Percentage of positive cells for phosphatidylserine (cells in apoptosis) in MEG-01 cells: untreated cells 12%
Method: (§5) Redistribution of plasma membrane phosphatidylserine is a characteristic of cells undergoing apoptosis (Martin et al., J. Exp. Med., 182:1545, 1995). The redistribution of phosphatidylserine in the plasma membrane during apoptosis was measured by flow cytometry using FITC (fluorescein isothiocyanate)-conjugated annexin V (BD Pharmingen, San Diego, Calif.). MEG-01 cells, a human chronic myelogeneous leukemia cell line positive for the Philadelphia chromosome and having a BCR-ABL gene fusion, were incubated at 2.5×10^5 cells/ml for 48 hours with 5.3, 26.5 and 53.0 μM final concentrations of SEQ ID NO:1, SEQ ID NO:2, SEQ ID NO:5, SEQ ID NO:6 and cholesteryl-TEG phosphoramidite molecule. The percentage of cells in apoptosis after exposure to the SEQ ID NOs:1, 2, 5, 6, or cholesteryl-TEG phosphoramidite treatment is reported in Table 2. The percentage of apoptosis in untreated MEG-01 cells was 12%.

Hs578T cells [6] = test: Cell cycle progression in Hs578T multicellular spheroids (PI staining); format: cell-based, human; conditions: 53 μM, 72 hrs, FIG. 5
Method: Multicellular spheroids (MS) is an example of a special in vitro assay, in which tumor cells are cultured in a 3-dimensional manner to form a “tumor-like” structure. In this system, there is a reinforcement of cell-cell interactions that mimic microenvironmental conditions of malignant cells in solid tumors in vivo. In this type of assay, no extracellular matrix components are added. Cells cultured in this MS system differ from those in 2-dimensional systems (monolayer culture conditions). Some of these differences are related to structural and functional differentiation of tumor cells, changes in the cell cycle of tumor cells, “multicellular drug resistance”, and changes in the diffusion and penetration of drugs throughout layers of tumor cells (reviewed in Green et al., Anticancer Drug Des. 14:153, 1999).
About 100×10^3 Hs578T cells per spheroid were cultured in presence of 53 μM final concentration of SEQ ID NO:3, SEQ ID NO:7, 53 μM final concentration of cholesteryl-TEG phosphoramidite (cholTEG) or corresponding control media (regular culture medium (RCM), RCM with the same amount of water (RCMW) as the amount added with the SEQ ID NO:7, and RCM with the same amount of acetonitrile (RCMA) as the amount added with cholesteryl-TEG phosphoramidite). Five spheroids per each experimental condition were cultured for 72 hrs. Afterwards, cell cycle progression was evaluated by propidium iodide (PI) staining (Calbiochem, Novabiochem Corporation, San Diego, Calif.) using a FACScalibur flow cytometer (Becton Dickinson, Franklin Lakes, N.J.). Changes in the percentage of cells in the different phases of the cell cycle were analyzed using MODFIT LT software (Verity Software House Inc).

MCF-7 cells = test: Treatment of pre-formed 3-dimensional MCF-7 structures on MATRIGEL; format: cell-based, human; conditions: MCF-7, 53 μM, repeated every 3-4 days up to 19-20 days, FIG. 3
Method: MCF-7 cells were cultured in regular culture medium (RCM), trypsinized and counted. 150×10^3 of MCF-7 cells, in wells of 24-well plates coated with 350 μl of MATRIGEL®. After the formation of 3-dimensional structures during 48 hrs without any treatment, the medium was changed and the structures were exposed to a final concentration of 53 μM of SEQ ID NO:3, 53 μM of SEQ ID NO:7, 53 μM of cholesteryl-TEG phosphoramidite, RCM or their respective control media (RCM with water, RCM with DMSO, or RCM with acetonitrile). The treatments were repeated every 3-4 days until a maximum time in culture of 19-20 days. The experiment was repeated three times. Digital photographs of the cells in the 24-well plates were taken using a Nikon Coolpix 990 digital camera connected to a Nikon inverted microscope model TMS.

EL-4 cells = test: Apoptosis by phosphatidylserine redistribution (annexin V flow cytometry) in EL-4 cells; format: cell-based, murine; conditions: 24 hours; for Percentage of positive cells for phosphatidylserine (cells in apoptosis) in EL-4 cells: untreated cells 7%
Method: as §5
EL-4 cells, a murine T lymphoma cell line, were incubated at 2.5×10^5 cells/ml for 24 hours with 0.53, 5.3 and 53.0 μM concentrations of SEQ ID NO:3, SEQ ID NO:7 or cholesteryl-TEG phosphoramidite. The percentage of cells in apoptosis after exposure to SEQ ID NO:3, SEQ ID NO:7 or cholesteryl-TEG phosphoramidite treatment is reported in Table 3. The percentage of apoptosis in untreated EL-4 cells was 7%.

[7] = cultured for 3 days, + stimulation, − inhibition, three independent assays
[8] = translocation of phosphatidylserine, up to 53.0 μM

| Molecule | Inhibition of proliferation of synovial HIG-82 cells (in words) (HIG-82 cells) | Inhibition of HIG-82 cell proliferation, inhibition (%) (HIG-82 cells) | Formation of 3-dimensional structures / cell morphology on MATRIGEL (Hs578T cells [1]) | Formation of 3-dimensional structures / cell morphology on MATRIGEL [2] | Effect on pre-formed 3-dimensional structures on MATRIGEL [3] | Effect on cellular proliferation (in words) ([4]; 72 hrs) | Percentage of changes in cellular proliferation compared to controls (mean ± s.d.) [4, 7] [%] | Effect on cellular proliferation (in words) (Hs578T cells [5]; 72 hrs) | Percentage of changes in cellular proliferation compared to controls (mean ± s.d.) (Hs578T cells [5]; [7]) | Percentage of positive cells for phosphatidylserine (cells in apoptosis) in MEG-01 cells (MEG-01 cells; 5.3 μM) [%] | Percentage of positive cells for phosphatidylserine (cells in apoptosis) in MEG-01 cells (MEG-01 cells; 26.5 μM) [%] | Percentage of positive cells for phosphatidylserine (cells in apoptosis) in MEG-01 cells (MEG-01 cells; 53.0 μM) [%] | Induction of apoptosis in MEG-01 cells (in words) (MEG-01 cells; [8]) | Cell cycle progression in multicellular spheroids (Hs578T cells [6]) | Effect on pre-formed 3-dimensional structures on MATRIGEL (MCF-7 cells) | Percentage of positive cells for phosphatidylserine (cells in apoptosis) in EL-4 cells (EL-4 cells; 0.53 μM) [%] | Percentage of positive cells for phosphatidylserine (cells in apoptosis) in EL-4 cells (EL-4 cells; 5.3 μM) [%] | Percentage of positive cells for phosphatidylserine (cells in apoptosis) in EL-4 cells (EL-4 cells; 53.0 μM) [%] | Induction of apoptosis in EL-4 cells (in words) (EL-4 cells; [8]) |
| --- | --- | --- | --- | --- | --- | --- | --- | --- | --- | --- | --- | --- | --- | --- | --- | --- | --- | --- | --- |
| 5′ OH-GTG-OH 3′ (listed as DNA, chemistry not fully specified) [SEQ ID NO:4] | did not inhibit proliferation | −7 | did not change the cellular morphology | did not change the cellular morphology |  |  |  |  |  |  |  |  |  |  |  |  |  |  |  |
| 5′OH-GTG(TEG-cholesteryl) 3′ (3' {TEG-Chol}, sugars by position and backbone not given here) [SEQ ID NO:8, 5′-OH, 3′-TEG cholesteryl synthetic oligonucleotide] | capacity to inhibit the cellular proliferation | 64 | disrupted the growth pattern | disrupted the growth pattern |  |  |  |  |  |  |  |  |  |  |  |  |  |  |  |
| COc1ccc(C(OCC(COCCOCCOCCOCCCNC(=O)O[C@H]2CC[C@@]3(C)C(=CC[C@H]4[C@@H]5CC[C@H]([C@H](C)CCCC(C)C)[C@@]5(C)CC[C@@H]43)C2)OP(OCCC#N)N(C(C)C)C(C)C)(c2ccccc2)c2ccc(OC)cc2)cc1 (some centres unmarked) [cholesteryl-TEG phosphoramidite] |  |  |  |  | did not affect the 3-dimensional structures | did not significantly affect cellular proliferation | −2.3 ± 15.9 | did not significantly affect cellular proliferation | +13 ± 9.2% | 12 | 12 | 12 | inactive | did not significantly modify cell cycle progression | did not affect the 3-dimensional structures | 7 | 7 | 7 | neither SEQ ID NO:3 nor cholesteryl-TEG phosphoramidite caused apoptosis |
